Data: US12728104B2, “Therapeutic methods for preventing tumor metastasis and tumor recurrence” (LUNELLA BIOTECH, INC., priority 2020, dated 2026)
“Also recorded” adds a separate entry of the source.

Legend:
[1] = test system: MCF7 cells; conditions: cited from earlier work
[2] = test system: MDA-MB-231 tumor growth; assay: Tumor growth assay, MDA-MB-231 cells on the chorio-allantoic membrane (CAM) in chicken eggs; type: in vivo, human; conditions: treated daily for 8 days
Experimental: To experimentally evaluate their functional effects in vivo, the inventors used MDA-MB-231 cells and the well-established chorio-allantoic membrane (CAM) assay in chicken eggs, to quantitatively measure tumor growth and metastasis. An inoculum of 1×10^6 MDA-MB-231 cells was added onto the CAM of each egg (day E9) and then eggs were randomized into groups. On day E10, tumors were detectable and they were then treated daily for 8 days with vehicle alone (1% DMSO in PBS) or the three Mitoriboscin compounds. In parallel, the inventors also evaluated the activity of another mitochondrial inhibitor, namely butene-1,4-bis-triphenyl-phosphonium (Bis-TPP), which was identified as an inhibitor of 3D-mammosphere formation in MCF7 cells, with an IC-50 of less than 0.5 μM.
After 8 days of drug administration (on day E18), all tumors were weighed, and the lower CAM was collected to evaluate the number of metastatic cells, as analyzed by qPCR with specific primers for Human Alu sequences.
(§1) a) Preparation of Chicken Embryos. Fertilized White Leghorn eggs were incubated at 37.5° C. with 50% relative humidity for 9 days. At that moment (E9), the chorioallantoic membrane (CAM) was dropped down by drilling a small hole through the eggshell into the air sac, and a 1 cm^2 window was cut in the eggshell above the CAM (19-23).
b) Amplification and Grafting of Tumor Cells. […]

[3] = test system: MDA-MB-231 cells; conditions: cited from earlier work
[4] = test system: MDA-MB-231 metastasis; assay: Metastasis assay, MDA-MB-231 cells in the CAM assay (qPCR for Human Alu sequences in lower CAM); type: in vivo
Experimental: MDA-MB-231 cells and the CAM assay in chicken eggs were used to quantitatively measure spontaneous tumor mestastasis. An inoculum of 1×10^6 MDA-MB-231 cells was added onto the CAM of each egg (on day E9) and then eggs were then randomized into groups. On day E10, tumors were detectable and they were then treated daily for 8 days with vehicle alone (1% DMSO in PBS) or the four mitochondrial inhibitors. After 8 days of drug administration, the lower CAM was collected to evaluate the number of metastatic cells, as analyzed by qPCR with specific primers for Human Alu sequences. […] The same procedure may be used to evaluate the anti-metastasis and anti-recurrence effects of other mitochondrial inhibitors.
as §1
b) Amplification and Grafting of Tumor Cells. The MDA-MB-231 tumor cell line was cultivated in DMEM medium supplemented with 10% FBS and 1% penicillin/streptomycin. On day E9, cells were detached with trypsin, washed with complete medium and suspended in graft medium. An inoculum of 1×10^6 cells was added onto the CAM of each egg (E9) and then eggs were randomized into groups (19-23).
d) Metastasis Assays. On day E18, a 1 cm^2 portion of the lower CAM was collected to evaluate the number of metastatic cells in 8 samples per group (n=8). Genomic DNA was extracted from the CAM (commercial kit) and analyzed by qPCR with specific primers for Human Alu sequences. Calculation of Cq for each sample, mean Cq and relative amounts of metastases for each group are directly managed by the Bio-Rad® CFX Maestro software. A one-way ANOVA analysis with post-tests was performed on all the data (19-23).

[5] = test system: chick embryo; assay: Embryo tolerability assay (chick embryo toxicity); type: in vivo; conditions: for Alive / Dead: number of embryos
Experimental: a) Preparation of Chicken Embryos. […] At that moment (E9), the chorioallantoic membrane (CAM) was dropped down by drilling a small hole through the eggshell into the air sac, and a 1 cm^2 window was cut in the eggshell above the CAM (19-23).
e) Embryo Tolerability Assay: Before each administration, the treatment tolerability was evaluated by scoring the number of dead embryos.

[6] = test system: CSCs in cell lines derived from 8 different cancer types; conditions: cell lines from 8 cancer types incl. MCF7, T47D, MDA-MB-231, MCF10.DCIS.COM; cited from earlier work

With `O[C@@H]1[C@H](NCc2ccccc2)CCC[C@H]1Oc1ccccc1Oc1ccc(Cl)cc1` [23/G4] as the compound, how does the “inhibition of 3D-mammosphere formation, active concentration range” value [1] read?
Its value is “low micro-molar range”.

What about the “effect on MDA-MB-231 tumor growth” value [2] of the same compound?
The value was “minor effects”.

What about the “blocking of cell migration, active concentration range” value [3] of the same compound?
The value was “low micro-molar range”.

And the “effectiveness in CAM assay” value ([4]; concentration of 0.5 mM)?
The value was “minimally effective”.

And the inhibition of metastasis ([4]; higher concentrations 0.75 mM, 1 mM, 2 mM, CAM assay)?
Its inhibition of metastasis is 70-75%.

And the “% Alive” value ([5]; 0.5 mM)?
The value was 70%.

What about the “% Dead” value ([5]; 0.5 mM) of the same compound?
Its value is 30%.

And the Alive ([5]; 0.5 mM)?
The Alive was 7.

What about the Dead ([5]; 0.5 mM) of the same compound?
Its Dead is 3.

And the “% Alive” value ([5]; 0.75 mM)?
The value was 71.43%.

And the “% Dead” value ([5]; 0.75 mM)?
Its value is 28.57%.

And the Alive ([5]; 0.75 mM)?
Its Alive is 10.

What about the Dead ([5]; 0.75 mM) of the same compound?
Its Dead is 4.

What about the “% Alive” value ([5]; 1 mM) of the same compound?
The value was 80%.

And the “% Dead” value ([5]; 1 mM)?
Its value is 20%.

What about the Alive ([5]; 1 mM) of the same compound?
The Alive was 12.

And the Dead ([5]; 1 mM)?
Its Dead is 3.

And the “% Alive” value ([5]; 2 mM)?
Its value is 66.67%.

What about the “% Dead” value ([5]; 2 mM) of the same compound?
The value was 33.33%.

What about the Alive ([5]; 2 mM) of the same compound?
Its Alive is 10.

What about the Dead ([5]; 2 mM) of the same compound?
The Dead was 5.

Which “inhibition of anchorage-independent propagation of CSCs” value [6] does the source give for `CC[C@H]1OC(=O)[C@H](C)[C@@H](O[C@H]2C[C@@](C)(OC)[C@@H](O)[C@H](C)O2)[C@H](C)[C@@H](O[C@@H]2O[C@H](C)C[C@H](N(C)C)[C@H]2O)[C@](C)(O)C[C@@H](C)CN(C)[C@H](C)[C@@H](O)[C@]1(C)O` [Azithromycin] here?
The value was “effectively inhibit”.

For `C(=CC[P+](c1ccccc1)(c1ccccc1)c1ccccc1)C[P+](c1ccccc1)(c1ccccc1)c1ccccc1` [Bis-TPP, butene-1,4-bis-triphenyl-phosphonium], which IC50 ([1]; read-out: IC-50, inhibition of 3D-mammosphere formation) is on record?
The IC50 was under 0.5 µM.

What about the “effect on MDA-MB-231 cancer metastasis” value ([4]; CAM assay in chicken eggs, treated daily for 8 days) of the same compound?
Its value is “functional prevention of cancer metastasis; also recorded: significantly prevented metastasis”.

And the “% Alive” value ([5]; 0.5 mM)?
The value was 58.33%.

What about the “% Dead” value ([5]; 0.5 mM) of the same compound?
The value was 41.67%.

And the Alive ([5]; 0.5 mM)?
The Alive was 7.

What about the Dead ([5]; 0.5 mM) of the same compound?
The Dead was 5.
